Consider three molecules from US12702715B2, “Targeted RNA degradation allows precision repurposing of protein-targeted small molecule medicines to RNA” (University of Florida Research Foundation, Incorporated, priority 2020, dated 2026).

Test [1] deals with pre-miR-21. The experiment in a line: Cellular Chem-CLIP and C-Chem-CLIP to study occupancy of pre-miR-21. It counts as cell-based, human. On the procedure: Cellular Chem-CLIP and C-Chem-CLIP to Study Occupancy of pre-miR-2L MDA-MB-231 cells in 100 mm dishes (~90% confluency) were treated with 4 or 5 for 6 h at 37° C. Then the cells were washed with 1×DPBS and cross-linked under 365 nm light for 10 min in ice cold 1×DPBS. The cells were harvested by scraping and pelleted by centrifugation. Total RNA was extracted by using the miRNeasy mini kit (Qiagen) per the manufacturer's protocol. Approximately 50 μg of total RNA was clicked to disulfide biotin azide as described in the “In Vitro Chem-CLIP and Competitive Chem-CLIP (C-Chem-CLIP)” section. Streptavidin beads (10 μL) were added, and the samples were incubated, with shaking, for 2 h at 37° C. The beads were then washed with 1× Wash Buffer (10 mM Tris-HCl, pH 7.0, 4 M NaCl, 1 mM EDTA) three times and then once with nanopure water. Bound RNAs were eluted from the beads by incubating with 200 μL of 1:1 TCEP (200 mM) pre-reduced with 600 mM of K2CO3 for 30 min at 37° C. The reaction was quenched by treatment with an equal volume of 400 mM of iodoacetamide for 30 min at room temperature. The supernatant was collected, and the beads were washed once with nanopure water: the water was added to the eluant. The combined eluant was cleaned up using RNAClean XP beads according to the manufacturer's protocol. The obtained RNA was then subjected to RT-qPCR. Enrichment of pre-miR-21 was calculated as previously described^6. Cellular C-Chem-CLIP was completed by pre-treating with 1 (1 or 5 μM) or 3 (1 or 5 μM) for 6 h, followed by dosing with 4 (5 μM) for 6 h. Sample preparation and data analysis were completed as described above for cellular Chem-CLIP studies.

The subject of test [2] is MCF-10A cells. In words: Boyden chamber invasion assay, MCF-10A. It counts as cell-based, human. To be noted: for invasion phenotype of MCF-10A acquired by transfection of mutant pre-miR-21: 1 binding site ablated. On the procedure:
Cell Culture. Cells were cultured at 37° C. and 5% CO2. MDA-MB-231 cells (HTB-26, ATCC) were cultured in RMPI 1640 medium with L-glutamine & 25 mM HEPES supplemented with 1× Antibiotic/Antimycotic solution (Corning) and 10% FBS. MCF-10A cells (CRL-10317, ATCC) were cultured in 1×DMEM/F12 50/50 with L-glutamine & 15 mM HEPES (Corning) supplemented with 20% FBS, 1× Antibiotic/Antimycotic solution, 20 ng/mL human epidermal growth factor (Pepro Tech, Inc.), 10 μg/mL insulin (Sigma-Aldrich), and […] hydrocortisone (Pfaltz & Bauer). For compound treatment, compound stocks either in DMSO or water were diluted in growth medium and added to cells for the indicated time. Plasmid DNA to overexpress pre-miR-21 in pcDNA 3.1 (Addgene 21114) or a plasmid DNA encoding the pre-miR-21 mutant (custom purchased from GenScript USA, Inc.) was transfected with jetPRIME per the manufacturer's protocol. After transfection, the medium was replaced with growth medium containing the compound of interest, prepared as described above. The RNase L-targeting siRNA or a control siRNA was transfected with Lipofectamine RNAiMAX reagent (Invitrogen) per the manufacturer's protocol.
Boyden Chamber Invasion Assay. MDA-MB-231 or MCF-10A cells (5×10^4) in serum free growth medium with or without compound treatment were seeded into hanging cell culture inserts (for 24-well plates) pre-coated with Matrigel. Complete growth medium was added to the bottom well. After 16-24 h, the medium was removed, and the hanging inserts were washed with 1×DPBS twice and then fixed with 4% paraformaldehyde in 1×DPBS at room temperature for 20 min. Then the inserts were washed twice with 1×DPBS and stained with 0.1% (w/v) crystal violet 1×DPBS for 20 min. The inserts were washed twice with nanopure water and once with 1×DPBS. Cells on the surface of the Matrigel (non-invasive) were removed with cotton swabs and invading cells were counted and imaged under a microscope.

The structures appear in SMILES notation. “Also recorded” adds a separate entry of the source.

Take `CN1CCN(c2ccc3nc(-c4c(N)c5c(F)cccc5[nH]c4=O)[nH]c3c2)CC1` [Compound 1, Dovitinib, reference compound]: the “competition of pull-down of pre-miR-21 with 4” value in test [1] (increasing concentrations, 4 constant) is listed as “similarly diminished”. In test [2], the “invasion phenotype of MCF-10A acquired by transfection of wild type pre-miR-21” value was “reverted this phenotype; also recorded: inhibited” and the “invasion phenotype of MCF-10A acquired by transfection of mutant pre-miR-21” value was “insensitive”. Moreover, the “invasive nature of MCF-10A cells” value in test [2] (no overexpression) is “had no effect”.

On to `CCOC(=O)C1=C(Nc2ccccc2)S/C(=C\c2ccc(OCCOCCOCCOCCNC(=O)NCCN3CCN(c4ccc5[nH]c(-c6c(N)c7c(F)cccc7[nH]c6=O)nc5c4)CC3)c(O)c2)C1=O` [Compound 2, Ribotac-Dovitinib], for which the “invasion phenotype of MCF-10A acquired by transfection of mutant pre-miR-21” value in test [2] is “had no effect; also recorded: unable to rescue”.

`C#CCCC1(CCC(=O)NCCN2CCN(c3ccc4[nH]c(-c5c(N)c6c(F)cccc6[nH]c5=O)nc4c3)CC2)N=N1` [Compound 4]: the “reaction with / pull-down of pre-miR-21 in cells” value in test [1] (MDA-MB-231) is “reacted with pre-miR-21”.
